Experimental data taken from patent EP1214938A2, “Modulation of cellular response to external stimuli” (priority 1991, dated 1992).

Key:
NIH3T3 cell line (D5C3) = assay: Blocking transformed phenotype of D5C3 cells (temperature-sensitive v-abl); format: cell-based, murine; design: key to Phenotype: 1+ represents a typical fibroblastic appearance of nontransformed NIH3T3 cells; visually graded on a scale of + (1+) to +++++ (5+); visually graded on a scale of + (1+) to +++++ (5+); +++++: 5+ represents a fully transformed phenotype; key to Growth: the nontransformed cells were scored as 1+ (for slower growth); graded from + (1+) to +++++ (5+); graded from + (1+) to +++++ (5+); +++++: the transformed cells were scored as 5+ (for rapid growth); conditions: for Growth / Phenotype: ciprofloxacin 50 µg/ml; for Phenotype: visually graded
Protocol: In an additional assay method of the invention, the effect of coadministering a xanthine compound with a candidate inhibitor for P450 can be assessed using transformed NIH3T3-[…] cells and comparing the effect on transformation phenotype among control, incubation with the xanthine derivative alone, and coincubation of the xanthine derivative with the P450 enzyme inhibitor. An NIH3T3 cell line ([…]) provides target cells which were transformed by an activated oncogene. The cells were transformed with a temperature-sensitive v-abl mutant gene. This mutant gene encodes a temperature-sensitive v-abl protein that produces a non-oncogenic product at a non-permissive temperature due to a lack of tyrosine phosphorylation. The cells were incubated at the permissive temperature (33°C) for 5 days after passage with and without pentoxifylline (1 mM).

T cell proliferation = conditions: Singer et al.; cited from earlier work
[1] = tested on: NIH3T3 murine fibroblast cells transformed with a mutated K-ras; assay: Growth and anchorage-independent growth in soft agar of K-ras-transformed cells in vitro; format: cell-based; conditions: Mus musculus, NIH3T3, read-out: concentrations resulting in inhibition of growth and suppression of anchorage-independent growth
Protocol: Additionally, NIH3T3 murine fibroblast cells transformed with a mutated K-ras (codon 12 Gly-Val) were tested in vitro and in nude mice.

[2] = tested on: IL-8 encoding mRNA in U937 and THP1; assay: Northern blot of IL-8 mRNA after lipopolysaccharide or GM-CSF induction; format: cell-based
Protocol: The murine fibrosarcoma cell line, L929, was also tested as an indicator for assays of TNF cytotoxicity. Cell growth was assayed by crystal violet staining using optical density as a measure of growth. […] Finally, two monocytic cell lines, U937 and THP1, were used to test the effect of pentoxifylline on the […] of the cytokine IL-8. The cell lines in culture were induced to upregulate IL-8 production by lipopolysaccharide or GM-CSF.

CD3-positive lymphocytes = assay: Proliferation (thymidine uptake) of CD2-positive cells stimulated by anti-CD3 monoclonal antibody; format: cell-based
Protocol: In these experiments, freshly isolated, CD2-positive cells were stimulated by a solid-phase monoclonal antibody to acquire a CD3 phenotype, and then PTX was added. […] The block in proliferation could not be overcome by addition of either tumor necrosis factor (Figures 20 and 21) or IL-1 (Figure 21). […] The cytokines and PTX were added at culture inception and the cells were harvested after 5 days.

[3] = tested on: Human glomerular mesangial cells; assay: Invention assay: HPLC of lipids (PA, DAG) extracted from IL-1-stimulated mesangial cells; format: cell-based
Protocol: The compounds of Formula I are shown to modulate the effects of primary stimuli which elevate levels of the relevant subspecies of PA and DAG using the assay system of the invention. In general for the assay, the cells to be tested are first incubated with the primary stimulating agent for various time periods and fixed in ice-cold methanol. The lipids are extracted using, for example, chloroform:methanol 2:1 (v/v), and the extracts are then subjected to HPLC as described by Bursten and Harris, Biochemistry (1991) . In this method, a Rainin mu-Porasil column is used with a 3:4 hexane:propanol organic carrier and a 1-10% water gradient during the first 10 minutes of separation. Detection of the peaks in the elution pattern is by absorption in the range of ultraviolet which detects isolated double bonds. Thus, the relevant peaks of unsaturated PA and DAG are shown in the elution pattern. It is important to note that the assay method permits discrimination between various forms of PA and DAG so that those relevant to the pathway affected by the compounds of Formula I can be measured directly. Confirmation of the nature of the acyl substituents of these components is accomplished using fast-atom bombardment mass spectroscopy. Thus, the relevant unsaturated (non-arachidonic) PA and DAG subspecies may be detected. The time periods employed are 5-60 seconds after stimulation with the primary stimulus, such as a cytokine. This technique permits assessment of the levels of various lipid components as a function of time. […]
The extracts were subjected to HPLC on a Rainin mu-Porasil column with a 3:4 hexane:propanol organic carrier and a 1-10% water gradient during the first 10 minutes of separation. The relative concentration of each lipid species is determined using absorption at 206 nm (A206), which follows unsaturated acyl content of lipid species. […] The absolute mass of each lipid species is determined by isolation of the lipid using a fraction collector, repurification on the HPLC column. […] Protein concentration is determined using the Bradford technique. […]

[4] = tested on: TNF transcripts in CD3 positive lymphocytes; assay: Northern blot, mixed lymphocyte reaction; format: cell-based; conditions: Figure 19A
[5] = tested on: phosphatidic acid phosphohydrolase (PAPH); assay: Invention assay (lipid HPLC after IL-1), indirect enzyme inhibition; format: cell-based, Human
Protocol: (§1) As shown hereinbelow, a simple assay involving incubation of target cells with primary stimulus in the presence or absence of the xanthine derivative followed by extraction and analysis of lipid content is diagnostic of the levels of various members of the foregoing pathway as characterized by their fatty acyl content. This assay indirectly measures the effect of the xanthine derivative on the relevant enzymes lysophosphatidic acid acyltransferase (LPAAT) and phosphatidic acid phosphoryl hydrolase (PAPH). In general, inhibition of these enzymes is effected by the xanthine derivative, thus resulting in lowering of the levels of the relevant species of the particular acylated subspecies of PA and DAG intermediates.
(§2) This example also illustrates the method of the invention.
(§3) Human glomerular mesangial cells were incubated with IL-1 for various time periods of 5-60 seconds and the cells were fixed in ice-cold methanol, and the lipids extracted using chloroform:methanol 2:1 (v/v). It is very important that the fixing/extraction process be conducted quickly so that the decomposition of unstable intermediates is halted.
(§4) The extracts were subjected to HPLC on a Rainin mu-Porasil column with a 3:4 hexane:propanol organic carrier and a 1-10% water gradient during the first 10 minutes of separation. The relative concentration of each lipid species is determined using absorption at 206 nm (A206), which follows unsaturated acyl content of lipid species. […] The absolute mass of each lipid species is determined by isolation of the lipid using a fraction collector, repurification on the HPLC column. Determination of phospholipid phosphorus is as nmoles/mg cellular protein. Protein concentration is determined using the Bradford technique.
(§5) Thus, the lyso PA that accumulates contains high levels of unsaturated fatty acids. Pentoxifylline in a dose range greater than 500 µM results in inhibition both of phosphatidate phosphohydrolase and of lyso PA acyl transferase.

[6] = tested on: lyso-PA acyl transferase (LPAAT); assay: as above; format: cell-based, Human; conditions: IL-1-stimulated HMC
Protocol: as §1, §2, §3, §4, §5

[7] = tested on: IL-2 receptor transcripts in CD3 positive lymphocytes; assay: Northern blot, mixed lymphocyte reaction; format: cell-based; conditions: Figure 19C
[8] = tested on: NIH3T3 murine fibroblast cells transformed with a mutated K-ras; assay: Subcutaneous tumors of K-ras-transformed NIH3T3 cells in nude mice; format: in vivo; conditions: after eight days, 10^6 cells subcutaneously
Protocol: Nude mice were injected subcutaneously with 10^6 cells and were treated either once or twice daily with 100 mg/kg pentoxifylline intraperitoneally. Control animals treated with only saline injections developed tumors that weighed 2.5 ±0.2 g after eight days. Animals treated once daily with pentoxifylline had tumors that weighed only 0.45 ±0.2 g while animals treated twice daily had tumors that weighed 0.2 ±0.1 g.

[9] = tested on: HLA-DR, the transferrin receptor (CD71), the IL-2 receptor (CD25), and CD69; conditions: MLR-stimulated lymphocytes; Singer et al.; cited from earlier work
[10] = tested on: IL-6 transcripts in bone marrow stromal cells; assay: Northern blot of IL-6 transcripts; format: cell-based; conditions: three-hour exposure, increasing concentrations
[11] = tested on: IL-2 transcripts in CD3 positive lymphocytes; assay: Northern blot, mixed lymphocyte reaction; format: cell-based; conditions: Figure 19B
[12] = tested on: human leukemic cell line (Mo7e); assay: GM-CSF-stimulated colony formation in semisolid medium; format: cell-based; conditions: colonies counted 10 days after culture initiation; Figure 14
Protocol: The human leukemic cell line (Mo7e) is dependent on added granulocyte-macrophage colony-stimulating factor (GM-CSF) for growth. Mo7e cells were cultured in semisolid medium with and without pentoxifylline (PTX) and rhGM-CSF. Colonies were counted 10 days after culture initiation under an inverted microscope. […] PTX thus prevents the up-regulation of activation-associated genes which inhibit proliferation.

[13] = tested on: TNFα transcripts in U937 cells; assay: Northern blot of TNF transcripts after LPS induction; format: cell-based; conditions: 1 mM PTX; LPS for three hours
[14] = tested on: SV40 T-antigen-transformed human kidney mesangial cells; assay: Growth of transformed mesangial cells by tritiated thymidine uptake; format: cell-based
Protocol: SV40 T-antigen-transformed human kidney mesangial cells were cultured under standard conditions with rhIL-1 or with TNFα with and without pentoxifylline (PTX). Transformed mesangial cells grow independently of added growth factors, but IL-1 and TNFα are the normal proliferative signals for mesangial cells. As was shown in Example 1, when IL-1 is added to kidney mesangial cells, within 30 seconds LPAAT and PAPH are activated; the effect of both of these enzymes is inhibited by pentoxifylline at 1 mM. In this experiment, the growth of the treated cells was measured using tritiated thymidine uptake.

[15] = tested on: Steel factor transcripts in marrow stromal cell lines; assay: Northern blot of Steel factor transcripts; format: cell-based; conditions: three-hour incubation; passaged (native) or cloned (CDCL) lines
[16] = 33°C, 5 days, pentoxifylline 1 mM

O=C(O)c1cn(C2CC2)c2cc(N3CCNCC3)c(F)cc2c1=O [Ciprofloxacin]
Growth (NIH3T3 cell line (D5C3); [16]): ++ | Phenotype (NIH3T3 cell line (D5C3); [16]): ++ | inhibition of the transformed phenotype (NIH3T3 cell line (D5C3); pentoxifylline 1 mM, Ciprofloxacin 50 µg/ml): significant effect

Cn1c(=O)n(CCCCC(C)(C)O)c(=O)c2[nH]cnc21 [HWA138]
suppression of T cell proliferation (T cell proliferation): minimal or no suppression

CCOCn1cnc2c1c(=O)n(CCCCC(C)(C)O)c(=O)n2C [HWA448]
suppression of T cell proliferation (T cell proliferation): active

CC(O)CCCCn1c(=O)c2c(ncn2C)n(C)c1=O (stereo not drawn) [M1, 1-(5-hydroxyhexyl) -3,7-dimethylxanthine]
suppression of T cell proliferation (T cell proliferation): active

CC(O)C(O)CCCn1c(=O)c2c(ncn2C)n(C)c1=O (stereo not drawn) [M3, 1-(4,5-dihydroxyhexyl) -3,7-dimethylxanthine]
suppression of T cell proliferation (T cell proliferation): minimal or no suppression

Cn1cnc2c1c(=O)n(CCCCC(=O)O)c(=O)n2C [M4, 1-(4-carboxybutyl)-3,7-dimethylxanthine]
suppression of T cell proliferation (T cell proliferation): minimal or no suppression

Cn1cnc2c1c(=O)n(CCCC(=O)O)c(=O)n2C [M5, 1-(3-carboxypropyl)-3,7-dimethylxanthine]
suppression of T cell proliferation (T cell proliferation): minimal or no suppression

CC(=O)CCCCn1c(=O)c2c(ncn2C)n(C)c1=O [Pentoxifylline]
minimal effective concentration [1]: ≥ 500 µM | synthesis of IL-8 [2]: did not inhibit | proliferation of lymphocytes induced by anti-CD3 (T cell proliferation): suppressed | Proliferation of CD3-positive lymphocytes (CD3-positive lymphocytes; CD2-positive cells stimulated by solid-phase monoclonal antibody): strikingly inhibited | thymidine uptake (CD3-positive lymphocytes; antibody 64.1, harvested after 5 days, not reversed by IL-1 or TNF): diminished | cyclical formation of PA, and conversion of PA to DAG ([3]; 100 µM pentoxifylline, 10^-11 M IL-1, 15- and 60-second points): no change | conversion of PA to DAG ([3]; 500 µM pentoxifylline, 10^-11 M IL-1, 15 second time point): slight attenuation | elevation of PA and DAG by IL-1 ([3]; 1 mM, all time points examined (15-60 seconds)): abolishes | TNF transcripts [4]: suppression | inhibition of PAPH ([5]; 0.5 mM): inhibits | dose range resulting in inhibition of phosphatidate phosphohydrolase ([5]; IL-1-stimulated HMC): greater than 500 µM | dose range resulting in inhibition of lyso PA acyl transferase [6]: greater than 500 µM | IL-2 receptor transcripts [7]: suppression | tumor weight ([8]; 100 mg/kg intraperitoneally once daily): 0.45 ± 0.2 g | tumor weight ([8]; 100 mg/kg intraperitoneally twice daily): 0.2 ± 0.1 g | expression of cell surface antigens on lymphocytes [9]: decreased | production of IL-6 transcripts [10]: increased | appearance of cells (NIH3T3 cell line (D5C3); 1 mM, 33°C, 5 days): predominantly non-transformed, fibroblastic appearance | Growth (NIH3T3 cell line (D5C3); [16]): +++ | Phenotype (NIH3T3 cell line (D5C3); [16]): +++ | inhibition at 1000 µM (NIH3T3 cell line (D5C3); Mus musculus, NIH3T3, 120 h, 1 mM, 33°C, 5 days, read-out: overall number of cells diminished): ~50% | IL-2 transcripts [11]: but not of IL-2 transcripts | GM-CSF-stimulated growth of colonies [12]: enhanced | TNF RNA obtained in response to LPS stimulation [13]: undetectable level | proliferative effect of TNF ([14]; TNFα, Figure 13B): enhances | growth stimulated by IL-1 ([14]; rhIL-1, Figure 13A): arrested growth | levels of Steel factor transcripts [15]: increases
